Laboratory results reported in PubChem BioAssay (NCI).
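Each compound was tested at five concentrations against cells in 96-well plates for 48 hours. GI50 is the concentration that inhibits growth by half. At the TGI there is no net growth.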

What was measured:
Experiment in all cases: NCI-60 cell line screen, 48 h
KM20L2 colon = test system: KM20L2 colon
M19-MEL melanoma = test system: M19-MEL melanoma
LXFL 529 NSCLC = test system: LXFL 529 NSCLC
DMS 114 small cell lung = test system: DMS 114 small cell lung
DMS 273 small cell lung = test system: DMS 273 small cell lung
XF 498 CNS = test system: XF 498 CNS
NCI/ADR-RES ovarian = test system: NCI/ADR-RES ovarian
MCF7 breast = test system: MCF7 breast
PC-3 prostate = test system: PC-3 prostate
MDA-MB-231 breast = test system: MDA-MB-231 breast

## CCOC(=O)C1C(=O)C(=O)N2CCc3c([nH]c4ccccc34)C12 (configuration not stated)
KM20L2 colon
  TGI: > 100 µM
M19-MEL melanoma
  TGI: > 100 µM
LXFL 529 NSCLC
  TGI: > 100 µM
DMS 114 small cell lung
  TGI: > 100 µM

## CCNC(=O)O/N=C1/C=C2CC[C@@H]3C(CC[C@@]4(C)C3CC[C@@H]4OC(=O)NCC)[C@@]2(C)CC1 (some centres not stated)
KM20L2 colon
  TGI: 5.15 µM
M19-MEL melanoma
  TGI: 10.3 µM
LXFL 529 NSCLC
  TGI: 3.4 µM
DMS 114 small cell lung
  TGI: 3.29 µM
DMS 273 small cell lung
  TGI: 5.5 µM

## O=[N+]([O-])c1cccc(C2=NOC3CCCC23)c1 (configuration not stated)
M19-MEL melanoma
  TGI: > 100 µM
LXFL 529 NSCLC
  TGI: > 100 µM
DMS 114 small cell lung
  TGI: > 100 µM
DMS 273 small cell lung
  TGI: > 100 µM

## O=C(Nc1ccccc1)Oc1ccccc1C1CCCCC1
M19-MEL melanoma
  TGI: 37.5 µM
XF 498 CNS
  TGI: 35 µM
LXFL 529 NSCLC
  TGI: > 100 µM
DMS 114 small cell lung
  TGI: 32.8 µM
DMS 273 small cell lung
  TGI: 42.6 µM

## Cn1nc(-c2ccccc2)c(C(=O)/C=C/c2ccccc2)c(N2CCCC2)c1=O
KM20L2 colon
  TGI: 33.4 µM
M19-MEL melanoma
  TGI: 37.3 µM
XF 498 CNS
  TGI: 39.9 µM
LXFL 529 NSCLC
  TGI: 34.4 µM
DMS 114 small cell lung
  TGI: 34.2 µM
DMS 273 small cell lung
  TGI: 93.1 µM

## CC1=CC(=O)N2[C@H](OC[C@@H]2C(C)C)O1
KM20L2 colon
  TGI: > 100 µM
M19-MEL melanoma
  TGI: > 100 µM
XF 498 CNS
  TGI: > 100 µM
LXFL 529 NSCLC
  TGI: > 100 µM
DMS 114 small cell lung
  TGI: > 100 µM

## CN(C)c1ccc(/C=C2\Cc3ccccc3C2=O)cc1Br
KM20L2 colon
  TGI: > 100 µM
M19-MEL melanoma
  TGI: > 100 µM
XF 498 CNS
  TGI: 86.2 µM
LXFL 529 NSCLC
  TGI: > 100 µM
DMS 114 small cell lung
  TGI: > 100 µM

## CC1CC2C(=O)N(c3ccccc3)C(=O)C2c2[nH]c3ccccc3c21 (configuration not stated)
M19-MEL melanoma
  TGI: > 100 µM
LXFL 529 NSCLC
  TGI: > 100 µM
DMS 114 small cell lung
  TGI: > 100 µM
DMS 273 small cell lung
  TGI: > 100 µM

## O=[N+]([O-])C1(CO)COC(CCc2ccccc2)OC1 (configuration not stated)
KM20L2 colon
  TGI: > 100 µM
M19-MEL melanoma
  TGI: > 100 µM
XF 498 CNS
  TGI: > 100 µM
LXFL 529 NSCLC
  TGI: > 100 µM

## Cn1ncc2c(c1=O)Nc1ccccc1S2(=O)=O
KM20L2 colon
  TGI: > 100 µM
M19-MEL melanoma
  TGI: > 100 µM
LXFL 529 NSCLC
  TGI: > 100 µM
DMS 114 small cell lung
  TGI: 40.9 µM
DMS 273 small cell lung
  TGI: > 100 µM

## NC1CC(n2ccc(=O)[nH]c2=O)OC1C(O)CO (configuration not stated)
KM20L2 colon
  TGI: > 100 µM
M19-MEL melanoma
  TGI: > 100 µM
XF 498 CNS
  TGI: > 100 µM
LXFL 529 NSCLC
  TGI: > 100 µM
DMS 114 small cell lung
  TGI: > 100 µM
DMS 273 small cell lung
  TGI: > 100 µM

## COC(=O)c1ccccc1NCc1cc(O)ccc1O
KM20L2 colon
  TGI: > 100 µM
NCI/ADR-RES ovarian
  TGI: 62.5 µM
M19-MEL melanoma
  TGI: 31.7 µM
XF 498 CNS
  TGI: 33.1 µM
MCF7 breast
  TGI: 38 µM
LXFL 529 NSCLC
  TGI: 32.9 µM
PC-3 prostate
  TGI: 33.6 µM
DMS 273 small cell lung
  TGI: > 100 µM

## NC(=O)NC(=O)C1CCC(=O)N1S(=O)(=O)c1ccc(Cl)cc1 (configuration not stated)
KM20L2 colon
  TGI: > 100 µM
M19-MEL melanoma
  TGI: > 100 µM
XF 498 CNS
  TGI: > 100 µM
LXFL 529 NSCLC
  TGI: > 100 µM
DMS 114 small cell lung
  TGI: > 100 µM

## CCCNc1ncnc2c1cnn2C
KM20L2 colon
  TGI: > 100 µM
M19-MEL melanoma
  TGI: > 100 µM
XF 498 CNS
  TGI: > 100 µM
DMS 114 small cell lung
  TGI: > 100 µM
DMS 273 small cell lung
  TGI: > 100 µM

## Cc1c(N)nc(C2CC(=O)N2CC(N)C(N)=O)nc1C(=O)NC(C(=O)NC(C)C(O)C(C)C(=O)NC(C(=O)NCCc1nc(-c2nc(C(=O)NCCNCC(C)O)cs2)cs1)C(C)O)C(OC1OC(CO)C(O)C(O)C1OC1OC(CO)C(O)C(OC(N)=O)C1O)c1cnc[nH]1 (configuration not stated)
KM20L2 colon
  TGI: > 100 µM
MDA-MB-231 breast
  TGI: > 50 µM
NCI/ADR-RES ovarian
  TGI: 50 µM
M19-MEL melanoma
  TGI: > 57.6 µM
XF 498 CNS
  TGI: > 22.4 µM
MCF7 breast
  TGI: 50 µM
LXFL 529 NSCLC
  TGI: > 100 µM
PC-3 prostate
  TGI: > 50 µM
DMS 114 small cell lung
  TGI: 4.47 µM
DMS 273 small cell lung
  TGI: 12 µM

## CCOC(=O)Oc1ccc2[nH]c3c(C)cc(N)c(C)c3c2c1
M19-MEL melanoma
  TGI: > 100 µM
XF 498 CNS
  TGI: > 100 µM
DMS 114 small cell lung
  TGI: > 100 µM
DMS 273 small cell lung
  TGI: > 100 µM

## CCOC(=O)/C(=C/c1ccc[nH]1)P(=O)(OCC)OCC
KM20L2 colon
  TGI: > 100 µM
M19-MEL melanoma
  TGI: > 100 µM
XF 498 CNS
  TGI: > 100 µM
LXFL 529 NSCLC
  TGI: > 100 µM
DMS 114 small cell lung
  TGI: > 100 µM
DMS 273 small cell lung
  TGI: > 100 µM

## CC(=O)OCC1OC(OC(C)=O)C(NC#N)C(OC(C)=O)C1OC(C)=O (configuration not stated)
M19-MEL melanoma
  TGI: > 100 µM
LXFL 529 NSCLC
  TGI: > 100 µM
DMS 114 small cell lung
  TGI: > 100 µM
DMS 273 small cell lung
  TGI: > 100 µM

## Cc1nc(-c2cccnc2)sc1C(=O)/C=C/c1ccc(Cl)cc1Cl
KM20L2 colon
  TGI: > 100 µM
M19-MEL melanoma
  TGI: > 100 µM
DMS 114 small cell lung
  TGI: > 100 µM
DMS 273 small cell lung
  TGI: > 100 µM

## CCOC(=O)C1=C(O)c2c(OC)ccc(OC)c2C(=O)C1=O
KM20L2 colon
  TGI: > 100 µM
M19-MEL melanoma
  TGI: > 100 µM
XF 498 CNS
  TGI: > 100 µM
DMS 114 small cell lung
  TGI: > 100 µM
DMS 273 small cell lung
  TGI: > 100 µM

## O=C1C(=O)c2c(ccc3ccccc23)-c2ccccc21
MDA-MB-231 breast
  GI50: 1.63 µM
  TGI: 8.08 µM
NCI/ADR-RES ovarian
  GI50: 1.19 µM
  TGI: 5.88 µM
MCF7 breast
  GI50: 1.53 µM
  TGI: 3.48 µM
PC-3 prostate
  GI50: 1.81 µM
  TGI: 6.25 µM
